± gives the expanded uncertainty stated by the source.
Assay: activity coefficient (dimensionless); of the first substance listed, at infinite dilution; xn = mol fraction of the nth substance listed
Conditions: 348.15 K; 101.33 kPa; Liquid; Chromatography; x1 = 0

In order of rising activity coefficient:
1. CO [methanol] + CCCCCCCCCCCC[N+](C)(C)CCOc1ccccc1.N#C[N-]C#N  0.332 ± 0.032
2. COC(C)=O [methyl ethanoate] + CCCCCCCCCCCC[N+](C)(C)CCOc1ccccc1.O=S(=O)([N-]S(=O)(=O)C(F)(F)F)C(F)(F)F  0.563 ± 0.04
3. CCC(=O)OC [methyl propanoate] + CCCCCCCCCCCC[N+](C)(C)CCOc1ccccc1.O=S(=O)([N-]S(=O)(=O)C(F)(F)F)C(F)(F)F  0.599 ± 0.042
4. CCCC(=O)OC [methyl butanoate] + CCCCCCCCCCCC[N+](C)(C)CCOc1ccccc1.O=S(=O)([N-]S(=O)(=O)C(F)(F)F)C(F)(F)F  0.672 ± 0.046
5. CO [methanol] + CCCCCCCCCCCC[N+](C)(C)CCOc1ccccc1.O=S(=O)([N-]S(=O)(=O)C(F)(F)F)C(F)(F)F  1.01 ± 0.06
6. COC(C)=O [methyl ethanoate] + CCCCCCCCCCCC[N+](C)(C)CCOc1ccccc1.N#C[N-]C#N  1.09 ± 0.07
7. CCC(=O)OC [methyl propanoate] + CCCCCCCCCCCC[N+](C)(C)CCOc1ccccc1.N#C[N-]C#N  1.19 ± 0.08
8. CC(C)c1ccccc1 [isopropylbenzene] + CCCCCCCCCCCC[N+](C)(C)CCOc1ccccc1.O=S(=O)([N-]S(=O)(=O)C(F)(F)F)C(F)(F)F  1.29 ± 0.08
9. CCCC(=O)OC [methyl butanoate] + CCCCCCCCCCCC[N+](C)(C)CCOc1ccccc1.N#C[N-]C#N  1.38 ± 0.09
10. CC(C)c1ccccc1 [isopropylbenzene] + CCCCCCCCCCCC[N+](C)(C)CCOc1ccccc1.N#C[N-]C#N  1.94 ± 0.13
11. C=CCCCC [hex-1-ene] + CCCCCCCCCCCC[N+](C)(C)CCOc1ccccc1.O=S(=O)([N-]S(=O)(=O)C(F)(F)F)C(F)(F)F  2.32 ± 0.16
12. CCCCCC [hexane] + CCCCCCCCCCCC[N+](C)(C)CCOc1ccccc1.O=S(=O)([N-]S(=O)(=O)C(F)(F)F)C(F)(F)F  3.15 ± 0.21
13. CCCCCCC [heptane] + CCCCCCCCCCCC[N+](C)(C)CCOc1ccccc1.O=S(=O)([N-]S(=O)(=O)C(F)(F)F)C(F)(F)F  3.68 ± 0.25
14. C=CCCCC [hex-1-ene] + CCCCCCCCCCCC[N+](C)(C)CCOc1ccccc1.N#C[N-]C#N  3.76 ± 0.26
15. CCCCCC [hexane] + CCCCCCCCCCCC[N+](C)(C)CCOc1ccccc1.N#C[N-]C#N  5.3 ± 0.36
16. CCCCCCC [heptane] + CCCCCCCCCCCC[N+](C)(C)CCOc1ccccc1.N#C[N-]C#N  6.16 ± 0.42

Same assay, conditions: 358.15 K; 101.33 kPa; Liquid; Chromatography; x1 = 0

In order of rising activity coefficient:
1. CO [methanol] + CCCCCCCCCCCC[N+](C)(C)CCOc1ccccc1.N#C[N-]C#N  0.339 ± 0.032
2. CCO [ethanol] + CCCCCCCCCCCC[N+](C)(C)CCOc1ccccc1.N#C[N-]C#N  0.438 ± 0.035
3. COC(C)=O [methyl ethanoate] + CCCCCCCCCCCC[N+](C)(C)CCOc1ccccc1.O=S(=O)([N-]S(=O)(=O)C(F)(F)F)C(F)(F)F  0.595 ± 0.042
4. CCOC(C)=O [ethyl acetate] + CCCCCCCCCCCC[N+](C)(C)CCOc1ccccc1.O=S(=O)([N-]S(=O)(=O)C(F)(F)F)C(F)(F)F  0.62 ± 0.043
5. CCCC(=O)OC [methyl butanoate] + CCCCCCCCCCCC[N+](C)(C)CCOc1ccccc1.O=S(=O)([N-]S(=O)(=O)C(F)(F)F)C(F)(F)F  0.706 ± 0.047
6. CO [methanol] + CCCCCCCCCCCC[N+](C)(C)CCOc1ccccc1.O=S(=O)([N-]S(=O)(=O)C(F)(F)F)C(F)(F)F  0.982 ± 0.062
7. CCO [ethanol] + CCCCCCCCCCCC[N+](C)(C)CCOc1ccccc1.O=S(=O)([N-]S(=O)(=O)C(F)(F)F)C(F)(F)F  1.09 ± 0.07
8. CCc1ccccc1 [ethylbenzene] + CCCCCCCCCCCC[N+](C)(C)CCOc1ccccc1.O=S(=O)([N-]S(=O)(=O)C(F)(F)F)C(F)(F)F  1.09 ± 0.07
9. COC(C)=O [methyl ethanoate] + CCCCCCCCCCCC[N+](C)(C)CCOc1ccccc1.N#C[N-]C#N  1.12 ± 0.07
10. CCC(=O)OC [methyl propanoate] + CCCCCCCCCCCC[N+](C)(C)CCOc1ccccc1.N#C[N-]C#N  1.22 ± 0.08
11. CCOCC [diethyl ether] + CCCCCCCCCCCC[N+](C)(C)CCOc1ccccc1.O=S(=O)([N-]S(=O)(=O)C(F)(F)F)C(F)(F)F  1.3 ± 0.08
12. CCOC(C)=O [ethyl acetate] + CCCCCCCCCCCC[N+](C)(C)CCOc1ccccc1.N#C[N-]C#N  1.31 ± 0.09
13. CC(C)c1ccccc1 [isopropylbenzene] + CCCCCCCCCCCC[N+](C)(C)CCOc1ccccc1.O=S(=O)([N-]S(=O)(=O)C(F)(F)F)C(F)(F)F  1.34 ± 0.09
14. CCCC(=O)OC [methyl butanoate] + CCCCCCCCCCCC[N+](C)(C)CCOc1ccccc1.N#C[N-]C#N  1.42 ± 0.09
15. CCc1ccccc1 [ethylbenzene] + CCCCCCCCCCCC[N+](C)(C)CCOc1ccccc1.N#C[N-]C#N  1.55 ± 0.1
16. CC(C)c1ccccc1 [isopropylbenzene] + CCCCCCCCCCCC[N+](C)(C)CCOc1ccccc1.N#C[N-]C#N  2 ± 0.14
17. CCCOCCC [dipropyl ether] + CCCCCCCCCCCC[N+](C)(C)CCOc1ccccc1.O=S(=O)([N-]S(=O)(=O)C(F)(F)F)C(F)(F)F  2.06 ± 0.14
18. CC(C)OC(C)C [diisopropyl ether] + CCCCCCCCCCCC[N+](C)(C)CCOc1ccccc1.O=S(=O)([N-]S(=O)(=O)C(F)(F)F)C(F)(F)F  2.16 ± 0.15
19. CCOCC [diethyl ether] + CCCCCCCCCCCC[N+](C)(C)CCOc1ccccc1.N#C[N-]C#N  2.34 ± 0.16
20. C=CCCCC [hex-1-ene] + CCCCCCCCCCCC[N+](C)(C)CCOc1ccccc1.O=S(=O)([N-]S(=O)(=O)C(F)(F)F)C(F)(F)F  2.36 ± 0.16
21. C1CCCCCCC1 [cyclooctane] + CCCCCCCCCCCC[N+](C)(C)CCOc1ccccc1.O=S(=O)([N-]S(=O)(=O)C(F)(F)F)C(F)(F)F  2.71 ± 0.18
22. CCCCCC [hexane] + CCCCCCCCCCCC[N+](C)(C)CCOc1ccccc1.O=S(=O)([N-]S(=O)(=O)C(F)(F)F)C(F)(F)F  3.21 ± 0.22
23. CCCOCCC [dipropyl ether] + CCCCCCCCCCCC[N+](C)(C)CCOc1ccccc1.N#C[N-]C#N  3.61 ± 0.25
24. CCCCCCC [heptane] + CCCCCCCCCCCC[N+](C)(C)CCOc1ccccc1.O=S(=O)([N-]S(=O)(=O)C(F)(F)F)C(F)(F)F  3.75 ± 0.26
25. C=CCCCC [hex-1-ene] + CCCCCCCCCCCC[N+](C)(C)CCOc1ccccc1.N#C[N-]C#N  3.84 ± 0.26
26. CC(C)OC(C)C [diisopropyl ether] + CCCCCCCCCCCC[N+](C)(C)CCOc1ccccc1.N#C[N-]C#N  4.29 ± 0.29
27. CCCCCC [hexane] + CCCCCCCCCCCC[N+](C)(C)CCOc1ccccc1.N#C[N-]C#N  5.41 ± 0.37
28. CCCCCCCCCC [decane] + CCCCCCCCCCCC[N+](C)(C)CCOc1ccccc1.O=S(=O)([N-]S(=O)(=O)C(F)(F)F)C(F)(F)F  5.98 ± 0.41
29. CCCCCCC [heptane] + CCCCCCCCCCCC[N+](C)(C)CCOc1ccccc1.N#C[N-]C#N  6.24 ± 0.43
30. CCCCCCCCCC [decane] + CCCCCCCCCCCC[N+](C)(C)CCOc1ccccc1.N#C[N-]C#N  9.45 ± 0.64
